Data reported in paper PMC6738921, “Polyamine biosynthesis in Xenopus laevis: the xlAZIN2/xlODC2 gene encodes a lysine/ornithine decarboxylase” (PLoS ONE, 2019).
Like-named read-outs stand apart in the source and are kept apart here. Each block holds one molecule with its values, some of them ahead of it.

Key:
Conditions in all cases: anti-Flag purified enzyme, less than 10% of activity recovered on purification, assay buffer: 0.1 mM pyridoxal phosphate, 1 mM dithiothreitol, 37°C
[1] = molecular target: T1, xlODC1 (Xenopus laevis, UniProt P27120); assay: decarboxylase activity, Michaelis-Menten fit; type: biochemical
T1 construct: gene odc1-a
T1 sequence (P27120 1-460): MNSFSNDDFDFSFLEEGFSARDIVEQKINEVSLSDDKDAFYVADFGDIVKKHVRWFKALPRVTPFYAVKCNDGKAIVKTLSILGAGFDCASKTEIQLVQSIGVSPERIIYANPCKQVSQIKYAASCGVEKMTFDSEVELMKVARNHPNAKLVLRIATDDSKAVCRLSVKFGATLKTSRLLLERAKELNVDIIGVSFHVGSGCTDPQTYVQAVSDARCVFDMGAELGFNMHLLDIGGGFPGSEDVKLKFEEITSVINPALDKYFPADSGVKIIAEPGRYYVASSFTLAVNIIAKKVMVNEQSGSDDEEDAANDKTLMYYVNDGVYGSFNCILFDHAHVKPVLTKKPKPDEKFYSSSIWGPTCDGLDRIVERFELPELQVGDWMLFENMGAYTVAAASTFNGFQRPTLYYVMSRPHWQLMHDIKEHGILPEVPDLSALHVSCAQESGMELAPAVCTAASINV

[2] = substrate: NCCC[C@H](N)C(=O)O; assay: purified protein
[3] = substrate: NCCCC[C@H](N)C(=O)O; assay: decarboxylase activity, Michaelis-Menten fit; type: biochemical, Xenopus laevis

Km ([1]; unit inferred, mM from, read-out: Km^Lys): 34.9 ± 6.1 mM
Molecule: NCCCC[C@H](N)C(=O)O [L-lysine]

Km ([1]; read-out: Km^Orn): 0.103 ± 0.027 mM
Molecule: NCCC[C@H](N)C(=O)O [L-ornithine]

B1: xlAZIN2 (xlODC2, xlLDC, xlLODC) (Xenopus laevis) (protein)
chain: MQGYIQESDFNLVEEGFLARDLMEEIINEVSQTEDRDAFFVADLGDVVRKHLRFLKALPRVKPFYAVKCNSSKGVVKILAELGAGFDCASKTEIELVQDVGVAPERIIYANPCKQISQIKYAAKNGVQMMTFDNEVELSKVSRSHPNARMVLRIATDDSKSSARLSVKFGAPLKSCRRLLEMAKNLSVDVIGVSFHVGSGCTDSKAYTQAISDARLVFEMASEFGYKMWLLDIGGGFPGTEDSKIRFEEIAGVINPALDMYFPESSDVQIIAEPGRYYVASAFSLAVNVIAKKEVEHSVSDDEENESSKSIMYYVNDGVYGSFNCLVFDHAHPKPILHKKPSPDQPLYTSSLWGPTCDGLDQIAERVQLPELHVGDWLLFENMGAYTIAASSNFNGFQQSPVHYAMPRAAWKAVQLLQRGLQQTEEKENVCTPMSCGWEISDSLCFTRTFAATSII
Km [2]: 3080 ± 810 µM
Km [3]: 807 ± 102 µM
